Patent publication US7098204B2 (C.N.R.S., priority 1999, dated 2006)
pIC50: −log10 of the molar value. In brackets after ≈: the same amount, converted by molar mass.

Legend:
[1] = molecular target: CDK1/cyclin B; experiment: CDK1/cyclin B kinase assay (histone H1); assay type: biochemical, starfish (Marthasterias glacialis)
Procedure: (§1) Kinases activities were assayed in Buffer A or C (unless otherwise stated), at 30° C., at a final ATP concentration of 15 μM. Blank values were subtracted and activities calculated as pmoles of phosphate incorporated for a 10 min. incubation (usually expressed in % of the maximal activity, i.e. without inhibitors). Controls were performed with appropriate dilutions of Me2SO. In some cases phosphorylation of the substrate was assessed by autoradiography after SDS-PAGE. IC50 values were estimated from the dose-response curves. • CDK1/cyclin B was extracted in homogenisation buffer from M phase starfish (Marthasterias glacialis) oocytes and purified by affinity chromatography on p9^CKShs1-Sepharose beads, from which it was eluted by free p9^CKShs1 as described. The kinase activity was assayed in buffer C, with 1 mg histone H1/ml, in the presence of 15 μM [γ-^32P] ATP (3,000 Ci/mmol; 1 mCi/ml) in a final volume of 30 μl. After 10 min. incubation at 30° C., 25 μl aliquots of supernatant were spotted onto 2.5×3 cm pieces of Whatman P81 phosphocellulose paper, and, 20 sec. later, the filters were washed five times (for at least 5 min. each time) in a solution of 10 ml phosphoric acid/liter of water. The wet filters were counted in the presence of 1 ml ACS (Amersham) scintillation fluid. • GSK-3β was either purified from rabbit muscle or expressed in and purified from insect Sf9 cells. It was assayed, following a 1/100 dilution in 1 mg BSA/ml 10 mM DTT, with 5 μl 40 μM GS-1 peptide as a substrate, in buffer A, in the presence of 15 μM [γ-^32P] ATP (3,000 Ci/mmol; 1 mCi/ml) in a final volume of 30 μl. […] Its activity was assayed in buffer C as described for CDK1/cyclin B. • CDK2/cyclin A, CDK2/cyclin E, CDK3/cyclin E, CDK4/cyclin D1, CDK6/cyclin D2, His-tagged erk1 and erk2, protein kinase C isoforms, the catalytic subunit of cAMP-dependent protein kinase, cGMP-dependent protein kinase, Myosin light chain kinase, casein kinases 1 & 2, ASK-γ (a plant homologue of GSK-3), insulin receptor tyrosine kinase domain (CIRK-41), c-raf, MAPKK, c-jun N terminal kinase (obtained from Promega), c-src kinase and v-abl kinase were assayed as described. Electrophoresis and Western Blotting

[2] = molecular target: cdk2/cyclin E (Homo sapiens, UniProt P24941); experiment: cdk2/cyclin E kinase assay; assay type: biochemical; conditions: 15 μM ATP
Procedure: (§2) Kinases activities were assayed in Buffer A or C (unless otherwise stated), at 30° C., at a final ATP concentration of 15 μM. Blank values were subtracted and activities calculated as pmoles of phosphate incorporated for a 10 min. incubation (usually expressed in % of the maximal activity, i.e. without inhibitors). Controls were performed with appropriate dilutions of Me2SO. In some cases phosphorylation of the substrate was assessed by autoradiography after SDS-PAGE. IC50 values were estimated from the dose-response curves. • CDK1/cyclin B was extracted in homogenisation buffer from M phase starfish (Marthasterias glacialis) oocytes and purified by affinity chromatography on p9^CKShs1-Sepharose beads, from which it was eluted by free p9^CKShs1 as described. The kinase activity was assayed in buffer C, with 1 mg histone H1/ml, in the presence of 15 μM [γ-^32P] ATP (3,000 Ci/mmol; 1 mCi/ml) in a final volume of 30 μl. After 10 min. incubation at 30° C., 25 μl aliquots of supernatant were spotted onto 2.5×3 cm pieces of Whatman P81 phosphocellulose paper, and, 20 sec. later, the filters were washed five times (for at least 5 min. each time) in a solution of 10 ml phosphoric acid/liter of water. The wet filters were counted in the presence of 1 ml ACS (Amersham) scintillation fluid. • GSK-3β was either purified from rabbit muscle or expressed in and purified from insect Sf9 cells. […]

[3] = molecular target: cdk6/cyclin D2 (Homo sapiens, UniProt Q00534); experiment: cdk6/cyclin D2 kinase assay; assay type: biochemical; conditions: 15 μM ATP
Procedure: as §2

[4] = molecular target: c-Jun N-terminal kinase; experiment: c-Jun N-terminal kinase assay; assay type: biochemical; conditions: 15 μM ATP
Procedure: as §2

[5] = molecular target: protein kinase C δ (Homo sapiens, UniProt Q05655); experiment: protein kinase C δ assay; assay type: biochemical; conditions: 15 μM ATP
Procedure: as §2

[6] = molecular target: protein kinase C ε (Homo sapiens, UniProt Q02156); experiment: protein kinase C ε assay; assay type: biochemical; conditions: 15 μM ATP
Procedure: as §2

[7] = molecular target: ASK-γ (plant GSK-3) (Arabidopsis thaliana, UniProt P43289); experiment: ASK-γ kinase assay; assay type: biochemical
Procedure: as §2

[8] = molecular target: Eg2 kinase (Xenopus laevis, UniProt Q91820); experiment: Eg2 kinase assay; assay type: biochemical; conditions: 15 μM ATP
Procedure: (§3) Enzyme activities were assayed as described in the Experimental Procedures section, in the presence of increasing HD concentrations. IC50's were calculated from the dose-response curves.−, no effect at the highest dose tested (in parentheses).

[9] = molecular target: casein kinase 1; experiment: casein kinase 1 assay; assay type: biochemical; conditions: 15 μM ATP; −(x) = no effect at highest concentration x tested; read-out: IC50 casein kinase 1 (CK 1)
Procedure: as §1

[10] = molecular target: T1, Insulin receptor tyrosine Kinase (Homo sapiens, UniProt P06213); experiment: insulin receptor tyrosine kinase assay; assay type: biochemical; conditions: 15 μM ATP
T1 construct: insulin receptor tyrosine kinase domain (CIRK-41)
Procedure: as §2

[11] = molecular target: c-src tyrosine kinase (Homo sapiens, UniProt P12931); experiment: c-src tyrosine kinase assay; assay type: biochemical; conditions: 15 μM ATP
Procedure: as §2

[12] = molecular target: topoisomerase I (Homo sapiens, UniProt P11387); experiment: topoisomerase I assay; assay type: biochemical; conditions: −(x) = no effect at the highest dose tested (in parentheses)
Procedure: as §3

[13] = tested on: casein kinase 1; experiment: In vitro phosphorylation of presenilin-2-MBP by casein kinase 1; assay type: biochemical; conditions: presenilin-2-MBP substrate, autoradiography
Procedure: The large hydrophilic loop of presenilin-2 between transmembrane domains 6 and 7 was expressed in E. coli as a presseilin-2 loop—maltose-binding protein (MBP) fusion protein [25]. Following affinity chromatography purification presenilin-2-MBP was used as a substrate for CK1. After 30 min incubation in the presence of various HD concentrations, the kinase reaction was stopped by addition of Laemmli sample buffer. MBP-presenilin-2 was resolved by SDS-PAGE and its phosphorylation level visualised by autoradiography.

[14] = molecular target: CDK5/p35 (Rattus norvegicus, UniProt Q03114); experiment: In vitro Pak1 phosphorylation by immunoprecipitated CDK5/p35; assay type: biochemical; conditions: CDK5/p35 immunoprecipitated from P02 rat cortices; read-out: IC50 CDK5/p35 towards GST-Pak1K299
Procedure: CDK5/p35 was immunoprecipitaed from P02 rat cortices using the C-terminal Santa Cruz antibody (400 μg total protein per kinase assay). The immunoprecipitate was split into equal aliquots and the kinase assays performed using GST-Pak1 K299 as a substrate. […] Phosphorylation was monitored by autoradiography.

[15] = tested on: 60 human tumor cell lines; experiment: NCI disease-oriented in vitro screen; assay type: cell-based; conditions: 48 hr exposure, 0.01–100 μM, read-out: average IC50 over 60 human tumor cell lines
Description: A sulforhodaminine B protein assay was used to estimate the cytotoxicity.

[16] = tested on: ovary, OVCAR-3; experiment: Human cancer cell line OVCAR-3 proliferation; assay type: cell-based
[17] = tested on: kidney, A498; experiment: Human cancer cell line A498 proliferation; assay type: cell-based
[18] = tested on: melanoma, SK-MEL-5; experiment: Human cancer cell line SK-MEL-5 proliferation; assay type: cell-based
[19] = tested on: HT29-18-C1 cells; experiment: Trypan blue dye exclusion, HT29-18-C1; assay type: cell-based, human
Procedure: HT29-18-C1 cells were synchronised in G1 by serum deprivation. 5% FCS was added at time 0 and cells were simultaneously treated (o) or not (o) exposed to 10 μM HD. During 24 h and thereafter cultured in 5% FCS-containing medium. Cell number was determined every 12 h for a 72 h period using a hemocytometer. The kinetics of growth inhibition are given on FIG. 9A. […] Serum-treated cells (time 0) were exposed to various HD concentrations and counted after 24 h. The results are given on FIG. 9B. The number of non-serum stimulated cells ( ? ) is indicated for comparison. […] Trypan blue dye exclusion indicated little toxicity associated with 10 and 80 μM HD at 24 h (>95% and 90% viability, respectively). This antiproliferative effect of HD appears to be reversible. In fact, cells slowly began to proliferate again after 72 h culture.

protein kinase C δ, sequence (Q05655 whole entry): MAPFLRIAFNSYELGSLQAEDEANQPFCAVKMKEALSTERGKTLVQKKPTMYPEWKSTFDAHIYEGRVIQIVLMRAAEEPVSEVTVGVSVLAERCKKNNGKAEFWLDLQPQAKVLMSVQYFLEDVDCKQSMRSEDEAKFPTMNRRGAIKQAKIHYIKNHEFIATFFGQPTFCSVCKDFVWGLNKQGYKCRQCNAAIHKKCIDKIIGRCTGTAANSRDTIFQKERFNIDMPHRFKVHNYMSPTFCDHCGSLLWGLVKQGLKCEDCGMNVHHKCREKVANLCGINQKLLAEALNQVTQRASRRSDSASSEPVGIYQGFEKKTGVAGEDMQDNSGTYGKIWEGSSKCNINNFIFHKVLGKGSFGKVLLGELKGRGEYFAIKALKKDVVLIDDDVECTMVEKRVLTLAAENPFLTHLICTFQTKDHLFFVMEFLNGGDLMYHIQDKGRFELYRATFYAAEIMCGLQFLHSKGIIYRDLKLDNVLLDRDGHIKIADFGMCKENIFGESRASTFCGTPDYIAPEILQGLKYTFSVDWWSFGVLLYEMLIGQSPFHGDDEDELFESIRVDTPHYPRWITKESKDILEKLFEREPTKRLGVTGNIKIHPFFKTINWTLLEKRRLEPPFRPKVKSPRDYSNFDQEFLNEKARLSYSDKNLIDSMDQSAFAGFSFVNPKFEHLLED
protein kinase C ε, sequence (Q02156 whole entry): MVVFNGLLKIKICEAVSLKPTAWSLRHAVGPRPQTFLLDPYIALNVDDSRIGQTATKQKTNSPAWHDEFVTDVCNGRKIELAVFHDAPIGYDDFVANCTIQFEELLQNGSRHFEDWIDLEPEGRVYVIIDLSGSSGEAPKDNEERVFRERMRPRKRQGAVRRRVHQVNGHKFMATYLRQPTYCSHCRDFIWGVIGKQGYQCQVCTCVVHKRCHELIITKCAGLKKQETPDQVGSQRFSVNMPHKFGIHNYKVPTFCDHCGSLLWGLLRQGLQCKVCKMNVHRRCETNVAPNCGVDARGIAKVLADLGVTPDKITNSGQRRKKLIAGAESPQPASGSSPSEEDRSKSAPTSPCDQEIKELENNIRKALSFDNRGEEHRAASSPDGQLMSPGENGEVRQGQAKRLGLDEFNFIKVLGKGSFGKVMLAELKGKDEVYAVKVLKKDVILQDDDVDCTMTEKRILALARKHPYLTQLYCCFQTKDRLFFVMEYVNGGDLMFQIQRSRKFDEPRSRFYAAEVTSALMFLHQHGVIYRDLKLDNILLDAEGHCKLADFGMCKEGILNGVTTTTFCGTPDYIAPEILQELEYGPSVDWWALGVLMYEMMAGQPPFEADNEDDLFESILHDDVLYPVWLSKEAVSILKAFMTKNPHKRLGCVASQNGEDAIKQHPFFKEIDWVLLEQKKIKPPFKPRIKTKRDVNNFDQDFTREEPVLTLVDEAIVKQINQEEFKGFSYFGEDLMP
topoisomerase I, sequence (P11387 whole entry): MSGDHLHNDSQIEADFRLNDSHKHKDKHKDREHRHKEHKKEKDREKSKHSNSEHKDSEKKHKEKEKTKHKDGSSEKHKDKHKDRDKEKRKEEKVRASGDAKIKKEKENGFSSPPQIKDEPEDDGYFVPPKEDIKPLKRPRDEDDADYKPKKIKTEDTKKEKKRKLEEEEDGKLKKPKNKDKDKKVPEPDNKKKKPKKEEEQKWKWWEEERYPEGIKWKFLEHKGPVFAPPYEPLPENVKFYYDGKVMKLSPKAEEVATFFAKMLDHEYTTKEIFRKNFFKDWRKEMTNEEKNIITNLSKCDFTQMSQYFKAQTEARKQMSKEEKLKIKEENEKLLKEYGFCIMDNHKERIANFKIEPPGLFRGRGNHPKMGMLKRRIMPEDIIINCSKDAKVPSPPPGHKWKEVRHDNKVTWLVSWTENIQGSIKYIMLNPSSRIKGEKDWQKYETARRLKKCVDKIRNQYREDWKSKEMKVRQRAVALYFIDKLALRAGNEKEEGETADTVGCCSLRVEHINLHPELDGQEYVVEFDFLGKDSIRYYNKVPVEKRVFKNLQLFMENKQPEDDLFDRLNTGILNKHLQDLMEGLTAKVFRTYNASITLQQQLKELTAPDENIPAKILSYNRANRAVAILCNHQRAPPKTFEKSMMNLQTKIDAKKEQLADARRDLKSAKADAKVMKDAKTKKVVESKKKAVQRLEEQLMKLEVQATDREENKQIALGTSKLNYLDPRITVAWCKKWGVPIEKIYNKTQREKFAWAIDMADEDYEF
Eg2 kinase, sequence (Q91820 whole entry): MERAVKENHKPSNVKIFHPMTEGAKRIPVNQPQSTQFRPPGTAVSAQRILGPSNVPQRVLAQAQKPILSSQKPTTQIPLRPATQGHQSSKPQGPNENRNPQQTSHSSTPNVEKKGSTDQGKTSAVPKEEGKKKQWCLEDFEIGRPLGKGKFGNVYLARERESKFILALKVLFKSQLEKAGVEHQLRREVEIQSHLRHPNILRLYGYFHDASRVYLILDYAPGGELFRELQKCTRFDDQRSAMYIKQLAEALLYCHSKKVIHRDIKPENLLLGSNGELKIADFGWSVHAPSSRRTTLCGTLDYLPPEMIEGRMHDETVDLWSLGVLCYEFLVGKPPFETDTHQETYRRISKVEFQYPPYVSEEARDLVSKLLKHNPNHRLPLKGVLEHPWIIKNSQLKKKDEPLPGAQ
ASK-γ (plant GSK-3), sequence (P43289 whole entry): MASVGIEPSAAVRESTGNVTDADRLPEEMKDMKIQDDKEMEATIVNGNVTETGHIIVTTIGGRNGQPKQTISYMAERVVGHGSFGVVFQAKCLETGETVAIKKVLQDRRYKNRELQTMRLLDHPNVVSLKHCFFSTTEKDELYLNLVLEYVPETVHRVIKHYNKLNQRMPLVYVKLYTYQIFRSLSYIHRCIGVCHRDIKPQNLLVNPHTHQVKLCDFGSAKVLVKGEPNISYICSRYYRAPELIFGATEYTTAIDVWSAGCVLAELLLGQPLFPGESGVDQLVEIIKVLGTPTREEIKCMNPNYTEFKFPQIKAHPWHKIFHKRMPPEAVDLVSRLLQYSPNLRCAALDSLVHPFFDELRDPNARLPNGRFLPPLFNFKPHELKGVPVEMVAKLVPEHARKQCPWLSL
c-src tyrosine kinase, sequence (P12931 whole entry): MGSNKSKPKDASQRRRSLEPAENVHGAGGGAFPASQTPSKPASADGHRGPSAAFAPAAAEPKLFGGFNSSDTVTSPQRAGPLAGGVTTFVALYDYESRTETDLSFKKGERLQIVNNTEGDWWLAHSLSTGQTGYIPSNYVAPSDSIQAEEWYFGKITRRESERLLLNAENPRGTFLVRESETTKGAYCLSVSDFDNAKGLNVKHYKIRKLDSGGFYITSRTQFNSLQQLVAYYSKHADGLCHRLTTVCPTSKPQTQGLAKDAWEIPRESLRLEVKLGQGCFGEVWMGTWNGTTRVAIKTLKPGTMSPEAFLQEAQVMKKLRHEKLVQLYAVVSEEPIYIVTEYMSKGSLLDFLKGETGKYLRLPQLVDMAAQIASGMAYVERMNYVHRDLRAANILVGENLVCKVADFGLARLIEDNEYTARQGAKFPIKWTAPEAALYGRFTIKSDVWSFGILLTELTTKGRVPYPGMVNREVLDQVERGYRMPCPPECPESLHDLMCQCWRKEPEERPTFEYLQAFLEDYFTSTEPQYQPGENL
CDK5/p35, sequence (Q03114 whole entry): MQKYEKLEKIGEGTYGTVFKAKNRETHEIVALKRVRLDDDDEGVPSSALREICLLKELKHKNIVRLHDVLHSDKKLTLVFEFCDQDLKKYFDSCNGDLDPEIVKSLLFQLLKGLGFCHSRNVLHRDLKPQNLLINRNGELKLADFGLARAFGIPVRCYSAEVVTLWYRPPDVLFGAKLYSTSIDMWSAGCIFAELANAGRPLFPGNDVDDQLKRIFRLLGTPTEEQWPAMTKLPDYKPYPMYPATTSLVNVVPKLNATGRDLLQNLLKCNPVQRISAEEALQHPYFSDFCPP
CDK5/p35, sequence (P61810 2-307 partner limits assumed): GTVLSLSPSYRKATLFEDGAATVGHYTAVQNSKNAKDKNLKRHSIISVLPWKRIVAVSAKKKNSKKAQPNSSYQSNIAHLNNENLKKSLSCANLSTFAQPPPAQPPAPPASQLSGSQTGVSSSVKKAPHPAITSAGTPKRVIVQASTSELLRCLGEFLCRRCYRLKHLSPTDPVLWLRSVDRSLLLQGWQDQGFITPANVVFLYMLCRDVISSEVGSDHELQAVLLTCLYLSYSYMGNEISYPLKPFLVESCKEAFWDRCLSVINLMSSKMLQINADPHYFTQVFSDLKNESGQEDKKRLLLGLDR
T1 sequence (P06213 1023-1298 limits assumed): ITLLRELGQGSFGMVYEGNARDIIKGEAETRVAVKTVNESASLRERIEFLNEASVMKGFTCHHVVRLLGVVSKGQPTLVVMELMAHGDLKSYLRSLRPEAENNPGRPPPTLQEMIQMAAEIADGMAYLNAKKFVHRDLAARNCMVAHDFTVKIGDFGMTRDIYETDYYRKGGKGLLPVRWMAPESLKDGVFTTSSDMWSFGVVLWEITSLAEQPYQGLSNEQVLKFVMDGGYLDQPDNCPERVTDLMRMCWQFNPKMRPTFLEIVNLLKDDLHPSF

Q: With `NC1=NC(=O)C(=C2CCNC(=O)c3[nH]c(Br)cc32)N1` [hymenialdisine, 4-(2-amino-4-oxo-2-imidazolin-5-ylidene)-2-bromo-4,5,6,7-tetrahydropyrrolo (2,3-c) azepine-8-one] as the compound, how does the pIC50 [1] read?
A: 7.66

Q: And the pIC50 [2]?
A: 7.40

Q: And the pIC50 [3]?
A: 6.15

Q: What about the pIC50 [4] of the same compound?
A: 5.07

Q: What about the pIC50 [5] of the same compound?
A: 5.96

Q: And the pIC50 [6]?
A: 5.19

Q: What about the pIC50 [7] of the same compound?
A: 7.10

Q: And the pIC50 [8]?
A: 5.40

Q: And the pIC50 [9]?
A: 7.46

Q: What about the pIC50 [10] of the same compound?
A: 4.12

Q: What about the pIC50 [11] of the same compound?
A: 5.15

Q: And the pIC50 [12]?
A: < 5.00

Q: What about the “presenilin-2 phosphorylation by CK1” value [13] of the same compound?
A: dose-dependent inhibition of presenilin-2 phosphorylation

Q: And the pIC50 [14]?
A: 7.00 to 8.00

Q: What about the pIC50 [15] of the same compound?
A: 4.82

Q: What about the IC50 [16] of the same compound?
A: 1.8 µg/mL (≈ 5.55 µM)

Q: What about the IC50 [17] of the same compound?
A: 24.7 µg/mL (≈ 76.2 µM)

Q: What about the IC50 [18] of the same compound?
A: 5.7 µg/mL (≈ 17.6 µM)

Q: And the “viability (trypan blue)” value ([19]; 10 μM HD at 24 h)?
A: > 95%

Q: And the “viability (trypan blue)” value ([19]; 80 μM HD at 24 h)?
A: 90%
